Results as given in ChEMBL document CHEMBL1159003, “Chemical investigation and anti-inflammatory activity of Vitex negundo seeds” (1992).

test system: Rattus norvegicus; assay: Antiinflammatory activity in Sprague-Dawley rat assessed as inhibition of carrageenan-induced paw edema at 50 mg/kg, po after 3.5 hrs; assay type: functional

Going from CC1(C)CC[C@]2(C(=O)O)CC[C@]3(C)C(=CC[C@@H]4[C@@]5(C)C[C@H](O)[C@@H](O)C(C)(C)C5=CC[C@]43C)[C@@H]2C1 to CC1(C)CC[C@]2(C(=O)O)CC[C@]3(C)C(=CC[C@@H]4[C@@]5(C)C[C@@H](O)[C@@H](O)C(C)(C)C5=CC[C@]43C)[C@@H]2C1, the inhibition in vivo at 50 mg/kg falls from 34.3% to 18.7%.

In the case of CC(C)Cc1ccc(C(C)C(=O)O)cc1 (stereo not drawn) [IBUPROFEN], the inhibition in vivo at 50 mg/kg is reported as 63.2%.
